Experimental data reported in publication PMC12742849 (Protein & Cell, 2025).

How the values were obtained:
[1] = molecular target: GST-tagged Francisella RibD (Francisella tularensis, UniProt A0Q460); settings: substrate generated in situ from GTP by E. coli RibA; with and without PEP
[2] = molecular target: ALFA-tagged RibD (RibD-ALFA), F. novicida (Francisella novicida); test: pull-down

Sequence of GST-tagged Francisella RibD (A0Q460 1-355): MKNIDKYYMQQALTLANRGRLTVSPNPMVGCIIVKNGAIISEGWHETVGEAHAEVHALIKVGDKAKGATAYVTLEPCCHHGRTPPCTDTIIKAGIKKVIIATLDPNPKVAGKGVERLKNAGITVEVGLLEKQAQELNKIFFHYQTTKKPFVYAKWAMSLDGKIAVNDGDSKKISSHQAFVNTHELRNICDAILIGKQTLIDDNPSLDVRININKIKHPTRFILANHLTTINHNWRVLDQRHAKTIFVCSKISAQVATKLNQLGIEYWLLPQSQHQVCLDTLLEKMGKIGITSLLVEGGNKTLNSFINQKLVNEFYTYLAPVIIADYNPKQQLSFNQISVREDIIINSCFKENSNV

Compound | fluorescence of the RibD reaction product (ex 408 nm, em 485 nm) [1] | stoichiometry N [2]
Nc1nc(N[C@@H]2O[C@H](COP(=O)(O)O)[C@@H](O)[C@H]2O)c(N)c(=O)[nH]1 [2,5-diamino-6-ribosyl-amino-4(3H) pyrimidinedione 5′-phosphate] | Results showed similar activity for both, with PEP having the same effect on each | –
FLAG-tagged enolase (enolase-FLAG), F. novicida (enzyme) | – | 1
